Molecules are shown by their SMILES.

`CN1C(=O)CN=C(c2cccc(Cl)c2)c2cc(C(N)(c3ccc(Cl)cc3)c3cncn3C)ccc21` (stereo not drawn) yielded a melting point of 213 °C.

As to `CN1C(=O)CSC(c2cccc(Cl)c2)c2cc(C(N)(c3ccc(Cl)cc3)c3cncn3C)ccc21` (stereo not drawn), the melting point worked out at 218 °C.

`Cn1cncc1C(N)(c1ccc(Cl)cc1)c1ccc2c(c1)C(c1cccc(Cl)c1)=NCc1nnnn1-2` (stereo not drawn) registered a melting point of 218 °C.

In the case of `Cn1cncc1C(c1ccc(Cl)cc1)c1ccc2c(c1)C(c1cccc(Cl)c1)SCC(=O)N2` (stereo not drawn), the melting point was found to be 187 °C.

`Cn1cncc1C(O)(c1ccc(Cl)cc1)c1ccc2c(c1)C(c1cccc(Cl)c1)SCc1nnnn1-2` (stereo not drawn) came in with a melting point of 217 °C.

Turning to `Cn1cncc1C(c1ccc(Cl)cc1)c1ccc2c(c1)C(c1cccc(Cl)c1)SCc1nnnn1-2` (stereo not drawn), the melting point came to 162 °C.

In the case of `Cn1cncc1C(c1ccc(Cl)cc1)c1ccc2c(c1)C(c1cccc(Cl)c1)SCCC(=O)N2` (stereo not drawn), the melting point worked out at 199 °C.

In the case of `Cn1cncc1C(O)(c1ccc(Cl)cc1)c1ccc2c(c1)C(c1cccc(Cl)c1)SCC(=O)N2` (stereo not drawn), the melting point is 210 °C.

`Cn1cncc1C(O)(c1ccc(Cl)cc1)c1ccc2c(c1)C(c1cccc(Cl)c1)SCC(=O)N2CC1CC1` (stereo not drawn) came in with a melting point of 245 °C.

`Cn1cncc1C(O)(c1ccc(Cl)cc1)c1ccc2c(c1)C(c1cccc(Cl)c1)=NCC(=O)N2` (stereo not drawn) came in with a melting point of 200 °C.

Regarding `CN1C(=O)CSC(c2cccc(Cl)c2)c2cc(C(O)(c3ccc(Cl)cc3)c3cncn3C)ccc21` (stereo not drawn), the melting point is 186 °C.

In the case of `CN1C(=O)CN=C(c2cccc(Cl)c2)c2cc(C(O)(c3ccc(Cl)cc3)c3cncn3C)ccc21` (stereo not drawn), the melting point was determined as 226 °C.

With `Cn1cncc1C(O)(c1ccc(Cl)cc1)c1ccc2c(c1)C(c1cccc(Cl)c1)=NCc1nnnn1-2` (stereo not drawn), the melting point was 240 °C.

Consider `O=C1CN=C(c2ccccc2)c2cc(C(c3ccc(Cl)cc3)n3ccnc3)ccc2N1` (racemic), for which the melting point stood at 144 °C.

Molecule `Cn1cncc1C(O)(c1ccc(Cl)cc1)c1ccc2c(c1)C(c1cccc(Cl)c1)OCC(=O)N2` (stereo not drawn) [Example B1, 5-(3-chlorophenyl)-7-[(4-chlorophenyl)hydroxy(1-methyl-1H-imidazol-5-yl)methyl]-1,5-dihydro-4,1-benzoxazepin-2(3H)-one] had a melting point of 260 °C.

`CN1C(=O)COC(c2cccc(Cl)c2)c2cc(C(O)(c3ccc(Cl)cc3)c3cncn3C)ccc21` (stereo not drawn) [Example B3, 5-(3-chlorophenyl)-7-[(4-chlorophenyl)hydroxy(1-methyl-1H-imidazol-5-yl)methyl]-1,5-dihydro-1-methyl-4,1-benzoxazepin-2(3H)-one] returned a melting point of 160 °C.

In turn, `CN1C(=O)CNC(c2cccc(Cl)c2)c2cc(C(O)(c3ccc(Cl)cc3)c3cncn3C)ccc21` (stereo not drawn) [Example B5, 5-(3-chlorophenyl)-7-[(4-chlorophenyl)hydroxy(1-methyl-1H-imidazol-5-yl)methyl]-1,3,4,5-tetrahydro-1-methyl-2H-1,4-benzodiazepin-2-one] yielded a melting point of 208 °C.

Take `Cn1cncc1C(O)(c1ccc(Cl)cc1)c1ccc2c(c1)C(c1cccc(Cl)c1)OCC(=S)N2` (stereo not drawn) [Example B7, 5-(3-chlorophenyl)-7-[(4-chlorophenyl)hydroxy(1-methyl-1H-imidazol-5-yl)methyl]-1,5-dihydro-4,1-benzoxazepine-2(3H)-thione]: the melting point was greater than 300 °C.

The values are drawn from patent US7153958B2, “Farnesyl transferase inhibiting benzoheterocyclic derivatives” (Janssen Pharmaceutica N.V., priority 2000, dated 2006).
